Patent publication US20100286069A1, “CATIONIC PEPTIDE FOR DELIVERING AN AGENT INTO A CELL” (priority 2007, published 2010)
“Also recorded” adds a separate entry of the source. Where no end group is shown, it is not given here.

Assays:
pDNA = assay: Gel retardation assay (Example 2); assay type: binding; conditions: PBS; N/P 1 to 10
Protocol: Complex formation of peptide amphiphiles with DNA: Complexes were formed at different N/P ratios by directly mixing equal volume of peptide and plasmid DNA (pDNA) solutions to achieve the intended N/P ratio, which measured the relative molar content of nitrogen atoms (N) in each peptide molecule to that of the phosphate groups (P) in each pDNA molecule, and was calculated based on the standardized 3 μgDNA/nmole DNA rule of thumb as described previously (31). To allow for complete electrostatic interaction between peptide and pDNA molecules, the solution was equilibrated at room temperature for 30 minutes upon mixing before being used for further studies.
Gel retardation assay: Various formulations of AK27/pDNA and AK32/pDNA complexes, ranging from N/P ratios of 1 to 10, were prepared in PBS. Post-equilibration, the complexes were electrophoresed on 1% agarose gel (stained with 4 μL of 0.5 μg/ml ethidium bromide per 50 mL of gel) in 0.5×TBE buffer at 80 V for 60 minutes. The gel was then analysed on a UV illuminator (Chemi Genius, Evolve, Singapore) to show the position of the complexed pDNA relative to that of the non-complexed form.
DNA binding: Gel retardation assays of the two peptide-based amphiphiles were performed to qualitatively study the electrostatic interaction between the peptide and pDNA.

HEK293 cell line = assay: In vitro luciferase gene expression in HEK293 (Example 2); assay type: cell-based, human
Protocol: (§1) Cell culture: Both HEK293 and HepG2 cell lines were cultured in high glucose DMEM medium supplemented with 10% fetal bovine serum (FBS), 100 μg/mL penicillin, and 100 μg/mL streptomycin at 37° C. in a humidified 5% carbon dioxide incubator. 4T1 cell line was also cultured with the same condition as the other cell lines, but in RPMI 1640 growth medium supplemented with 10 mM HEPES.
(§2) In vitro gene expression: HEK293, HepG2, and 4T1 cells were seeded onto 24-well plates at 80,000, 80,000 and 50,000 cells/well, respectively, using the same growth medium and conditions as described previously. After one day, the cells achieved about 70-80% confluence, at which transfection experiments were performed. Briefly, peptide/pDNA complexes were prepared at N/P 1, 10, 20, 30, 35, 40, 45 and 50, and different pH in either sodium acetate buffer (pH 5) or phosphate buffer (pH 6.5 and 7.4). The transfection pH was firstly optimized using HEK293 cell lines and AK27 peptide. […] The total amount of DNA loaded was kept constant at 2.5 μg/well. Cells were allowed to incubate with serum and antibiotics-supplemented growth medium (500 μL/well), onto which the complex solutions (50 μL/well) were added. After four hours following the incubation with the complexes, the medium was then replaced with the fresh one. […] The relative light units (RLU) were measured using a luminometer (Lumat LB9507, Berthold, Germany). […]

[1] = Zeta potential measurement (Example 2); assay type: physicochemical; conditions: N/P ratio 40; phosphate buffer pH 6.5
Protocol: Particle size and Zeta potential measurement: The particle size and zeta potential of the complexes were measured by dynamic light scattering (Brookhaven Instrument Corp., Holtsville, N.Y., U.S.A.) and using Zetasizer (Malvern Instrument Ltd., Worchestershire, UK), respectively. Briefly, AK27/pDNA and AK32/pDNA complexes were formed in phosphate buffer (pH 6.5) at room temperature at different N/P ratios (i.e. 1, 10, 20, 30 and 40). All the particle size measurements were performed with a light source of 677 nm wavelength and 15° constant angle. The particle size measurement was repeated for 5 runs for each sample, and the data was reported as the effective mean diameter. The zeta potential measurement was repeated for 3 runs per samples, and the data was calculated automatically using the software from the electrophoretic mobility based on the Smoluchowski's formula.

[2] = Critical micelle concentration (CMC) measurement with pyrene; assay type: physicochemical; conditions: PBS (pH 7.4)
Protocol: Critical micelle concentration (CMC) measurement: The CMC of the peptide amphiphile was measured using pyrene as the probe fluorescence molecule. A series of peptide solutions was prepared at various concentrations (0.01 to 2000 mg/L) in PBS. When excited at 337 nm wavelength, the electrons in the pyrene molecules absorb energy, and in turn, emit photons at wavelengths between 350-450 nm, as indicated by five emission peaks in the pyrene fluorescence spectrum (30). At the concentration of amphiphile above its CMC, when the amphiphile forms core/shell structured nanoparticles having a hydrophobic core and a hydrophilic shell, the pyrene molecules aggregate and are solubilized into the core giving […] intensity of the third peak in the emission spectrum. Therefore, monitoring the intensity of the third peak of pyrene's emission spectra, usually normalized to the first peak's intensity, provides a means to estimate the transition concentration (i.e. CMC) of the amphiphile aggregation.
The inflection point gives an estimate of CMC of AK27 in PBS (pH 7.4), which was approximately 120 mg/L.

[3] = MTT cytotoxicity assay in three cell lines (Example 2); assay type: cell-based, human, mouse; conditions: HEK293, HepG2 and 4T1 cells; blank nanoparticles and pDNA complexes, even at higher N/P ratios
Protocol: as §1
Cytotoxicity assay: The cytotoxicity of AK27, AK32, AK27/pDNA and AK32/pDNA complexes were all measured using the standard MTT assay protocol. Briefly, HEK293, HepG2 and 4T1 cell lines were seeded onto 96-well plates at 10,000 cells/well, 8,000 cells/well, and 6,000 cells/well seeding density, respectively. Post cell-seeding, the cells were incubated for one day before being used for cytotoxicity assay. For cytotoxicity assay with AK27/pDNA, complexes at N/P ratios of 1, 10, 20, 30, 35, 40, 45 and 50 were prepared in phosphate buffer (pH 6.5) as described earlier. […] After homogenizing the solution, 100 μL of the samples was spectrophotometrically read in a microplate reader (Biorad) at 550 nm and 690 nm wavelength. The relative cell viability was measured as ([Abs550]sample−[Abs690]sample)/([Abs550]control−[Abs690]control)×100%.

[4] = tested on: HEK293, HepG2 and 4T1 cell lines; assay: In vitro luciferase gene expression, three cell lines (Example 2); assay type: cell-based, human, mouse; conditions: for luciferase gene expression level compared with PEI at N/P 10: general, three cell lines
Protocol: as §1
In vitro gene expression: HEK293, HepG2, and 4T1 cells were seeded onto 24-well plates at 80,000, 80,000 and 50,000 cells/well, respectively, using the same growth medium and conditions as described previously. After one day, the cells achieved about 70-80% confluence, at which transfection experiments were performed. Briefly, peptide/pDNA complexes were prepared at N/P 1, 10, 20, 30, 35, 40, 45 and 50, and different pH in either sodium acetate buffer (pH 5) or phosphate buffer (pH 6.5 and 7.4). The transfection pH was firstly optimized using HEK293 cell lines and AK27 peptide. […] The total amount of DNA loaded was kept constant at 2.5 μg/well. Cells were allowed to incubate with serum and antibiotics-supplemented growth medium (500 μL/well), onto which the complex solutions (50 μL/well) were added. After four hours following the incubation with the complexes, the medium was then replaced with the fresh one. After 68 hours, the culture medium was removed, and the cells were washed with 0.5 mL of PBS (pH 7.4). 0.2 mL of reporter lysis buffer (Promega, Madison, Wis.) was then added to each well to lyse the cells. The cell suspension was next subjected to two cycles of freezing and thawing, and was centrifuged at 14,000 rpm for 5 minutes. 20 μL of the supernatant of the cell lysate was mixed with 100 μL of luciferase substrate (Promega). The relative light units (RLU) were measured using a luminometer (Lumat LB9507, Berthold, Germany). The luciferase activity was normalized to protein content using the BCA protein assay (Sigma). In all these experiments, both naked DNA-transfected cells and PEI-transfected cells were used as negative and positive controls, respectively. […]

4T1 cell line = assay: In vitro luciferase gene expression in 4T1 (Example 2); assay type: cell-based, mouse; conditions: PEI N/P 10, pH 6.5
Protocol: as §1, §2

HepG2 cell line = assay: In vitro luciferase gene expression in HepG2 (Example 2); assay type: cell-based, human; conditions: PEI N/P 10, pH 6.5
Protocol: as §1, §2

Sequence | N/P ratio for complete retardation of DNA (pDNA) | optimum complexation pH for transfection (HEK293 cell line; pH 5, 6.5 and 7.4 tested) | highest zeta potential of peptide/pDNA complexes [1] | CMC [2] | viability at 4 h [3] [%] | highest luciferase expression level compared with PEI ([4]; at N/P ratio of 45, PEI N/P 10) | luciferase gene expression level compared with PEI at N/P 10 [4] | highest luciferase expression level compared with PEI (4T1 cell line) | highest luciferase expression level compared with PEI (HEK293 cell line; PEI N/P 10, pH 6.5) | highest luciferase expression level compared with PEI (HepG2 cell line)
AAAAAAAAAAAAHHHHHKKKKKKKKKK [AK27, (A)12(H)5(K)10] | 3 | around 6.5 | approximately 7.8±1.1 mV | approximately 120 mg/L | > 80 | about one order of magnitude lower | an order of magnitude less |  |  | 
AAAAAAAAAAAAHHHHHKKKKKKKKKKKKKKK [AK32, (A)12(H)5(K)15] | 2 |  | ~18.2±0.5 mV |  | > 80 |  | almost comparable | less than an order of magnitude lower | comparable to that provided by PEI; also recorded: comparable to that yielded by PEI | comparable to that provided by PEI; also recorded: comparable to that yielded by PEI
